# Source: patent publication US10034931B2, “Use of EGFR pathway inhibitors to increase immune responses to antigens” (Emory University, priority 2013, dated 2018)
# Key:
# [1] = tested on: influenza-specific binding IgG antibodies; experiment: Virus-specific (total vaccine-reactive) antibody levels by ELISA; format: in vivo, BALB/c mice; settings: between the three groups (EGFRI, vehicle, vaccine only)
# [2] = tested on: A/California/07/2009 virus; experiment: Neutralizing antibody titers by microneutralization assay in sera of vaccinated mice; format: in vivo, BALB/c mice; settings: by week 8; vs vehicle-vaccinated and vaccine alone
# contact hypersensitivity = settings: topical application; associated with increases in several chemoattractant chemokines; cited from earlier work
# [3] = tested on: A/California/07/09 (H1N1) influenza virus; experiment: Hemagglutination inhibition (HAI) titers in sera of vaccinated mice; format: in vivo, BALB/c mice
# [4] = tested on: vaccine-specific IgM-secreting cells and IgG-secreting cells; experiment: Vaccine-specific antibody secreting cells (ELISPOT) in skin draining lymph nodes and spleen; format: in vivo, BALB/c mice
# CCL2 = experiment: Steady state mRNA levels of immune genes in skin after topical application; format: in vivo, Balb/c mice; settings: topical application to dorsal skin, six hour time point
# From the text: The topical application of the irreversible EGFR inhibitor PD168393 can enhance the elicitation phase of contact hypersensitivity in a manner that is associated with increases in several chemoattractant chemokines. During EGFRI therapy there are changes in immune gene expression even in clinically normal (non-inflamed) skin). To determine how EGFR inhibition alters immune gene expression, PD168393 or vehicle (10% DMSO in ethanol) was applied to the backs of Balb/c mice (5 mice per group) and steady state mRNA levels of several genes were measured. A six hour time point was selected for these experiments. […] This increase was observed independent of the reference housekeeping gene used in the analysis. In contrast, steady state levels of the housekeeping genes and several other genes analyzed were unchanged by topical PD168393 at this time point. These studies indicate that a single application of an EGFRI to mouse skin can alter the expression of chemokines that are known to influence immune cell trafficking into the skin.
# [5] = tested on: IFN-γ-producing and IL-4-producing cells; experiment: IL-4 and IFN-γ secreting cells (ELISPOT) in skin-draining lymph nodes and spleens; format: in vivo, BALB/c mice
smiles,measurement,setting,value
"C=CC(=O)Nc1ccc2ncnc(Nc3cccc(Br)c3)c2c1 [PD168393, N-[4-(3-bromoanilino)quinazolin-6-yl]prop-2-enamide]",total vaccine-reactive antibodies,[1],no differences
same,NT titers,[2],increased relative to both control groups
same,elicitation phase of contact hypersensitivity,contact hypersensitivity,enhance
same,"HAI titers, difference to vaccine alone or vehicle-vaccine group",[3]; as early as week 4,two-fold higher
same,functionally relevant humoral immune responses,"[3]; single application at site just prior to intradermal vaccination, vs vehicle (10% DMSO in ethanol)-treated mice",significantly higher
same,HAI titers,"[3]; single topical application at site just prior to intradermal vaccination, vs vehicle-vaccine and vaccine only",significantly higher
same,numbers of IgG-secreting cells,"[4]; skin draining lymph nodes, 1 and 2 weeks post vaccination, vs vehicle-vaccinated mice",significantly higher
same,number of IgG secreting cells,"[4]; skin draining lymph nodes, day 14, vs vehicle-vaccinated mice",twice as high
same,number of IgM secreting cells,"[4]; skin draining lymph nodes, seven days post vaccination, vs vehicle-vaccinated mice",double
same,number of cells producing influenza-specific antibodies,"[4]; skin-draining lymph nodes, topical treatment prior to vaccination",increase
same,cellular responses in the spleen (antibody secreting cells),"[4]; spleen, EGFRI- vs vehicle-vaccinated mice",without any notable differences
same,steady state levels of the housekeeping genes and several other genes,CCL2,unchanged
same,steady state mRNA levels of the chemokine CCL2,CCL2; vs vehicle (10% DMSO in ethanol),statistically significant increase
same,numbers of activated influenza-specific immune cells as defined by IFN-γ and IL-4 secretion,"[5]; one week post immunization, vs vehicle-vaccinated mice",higher numbers
same,numbers of IL-4 secreting cells,"[5]; skin-draining lymph nodes, one week post immunization, vs vehicle-vaccinated mice",3 fold
same,numbers of IFN-γ secreting cells,"[5]; skin-draining lymph nodes, one week post-vaccination, vs vaccine-vehicle cohort",4 fold
same,levels of IL-4 secreting lymphocytes,"[5]; skin-draining lymph nodes, two weeks post immunization, vs vehicle",significantly higher
same,difference in numbers of IFN-γ secreting cells,"[5]; skin-draining lymph nodes, two weeks post vaccination, vs vaccine-vehicle cohort",absent
same,numbers of IL-4 and IFN-γ secreting cells in spleens,"[5]; spleens, EGFRI- vs vehicle-vaccinated mice",no differences
